Results published in patent US20060264460A1 (Wyeth, priority 2005, published 2006).

biological target: T1, human Cot/Tpl2 kinase (Homo sapiens, UniProt P41279); experiment: Tpl2/Cot kinase assay: GST-MEK1 phosphorylation detected by ELISA (DELFIA Eu); assay type: biochemical; details: 0.4 nM Tpl2, 35 nM GST-MEK1, 50 uM ATP, 1 h at 30° C.
T1 construct: human Cot/Tpl2 kinase construct encoding residues 30-398; 6His (N); made in house; host or cells: Sf9 insect cells, baculovirus system (BD Biosciences)
Method in brief: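 His-tagged human Tpl2 from Sf9 cells, Ni-affinity and size-exclusion purified (monomer). 0.4 nM Tpl2 with 35 nM GST-MEK1, 50 uM ATP, MOPS pH 7.2, 1% DMSO, 1 h at 30° C; EDTA stop. MEK1 Ser217/221 phosphorylation detected by anti-phospho-MEK1 and Eu-labelled secondary ELISA; IC50 fitted.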

T1 sequence (P41279 30-398): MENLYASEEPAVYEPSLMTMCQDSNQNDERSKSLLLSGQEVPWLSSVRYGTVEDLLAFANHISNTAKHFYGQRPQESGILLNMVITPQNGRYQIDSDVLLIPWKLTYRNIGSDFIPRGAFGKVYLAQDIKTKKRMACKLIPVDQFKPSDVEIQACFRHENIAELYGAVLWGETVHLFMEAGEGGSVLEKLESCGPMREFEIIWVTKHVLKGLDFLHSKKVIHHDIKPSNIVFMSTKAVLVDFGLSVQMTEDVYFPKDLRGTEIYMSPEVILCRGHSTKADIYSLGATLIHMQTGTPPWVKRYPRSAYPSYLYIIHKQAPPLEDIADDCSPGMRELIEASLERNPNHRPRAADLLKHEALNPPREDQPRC

IC50 [µM]	Structure (SMILES)
0.038	N#Cc1cnc2c(Br)cc(NCc3cn(CC(=O)N4CCOCC4)nn3)cc2c1Nc1ccc(F)c(Cl)c1 [Example 298, 8-Bromo-4-(3-chloro-4-fluoro-phenylamino)-6-{[1-(2-morpholin-4-yl-2-oxo-ethyl)-1H-[1,2,3]triazol-4-ylmethyl]-amino}-quinoline-3-carbonitrile]
0.48	N#Cc1cnc2c(Br)cc(NCc3ccoc3)cc2c1Nc1ccc(F)c(Cl)c1 [Example 299, 8-Bromo-4-(3-chloro-4-fluoro-phenylamino)-6-[(furan-3-ylmethyl)-amino]-quinoline-3-carbonitrile]
0.021	N#Cc1cnc2c(Br)cc(NCc3csnn3)cc2c1Nc1ccc(F)c(Cl)c1 [Example 302, 8-Bromo-4-(3-chloro-4-fluoro-phenylamino)-6-[([1,2,3]thiadiazol-4-ylmethyl)-amino]-quinoline-3-carbonitrile]
> 40	N#Cc1cnc2c(Br)cc(NCc3cn(CCN4C(=O)c5ccccc5C4=O)nn3)cc2c1Nc1ccc(F)c(Cl)c1 [Example 303, 8-Bromo-4-(3-chloro-4-fluoro-phenylamino)-6-({1-[2-(1,3-dioxo-1,3-dihydro-isoindol-2-yl)-ethyl]-1H-[1,2,3]triazol-4-ylmethyl}-amino)-quinoline-3-carbonitrile]
0.017	N#Cc1cnc2c(Br)cc(NCc3cn(CCN)nn3)cc2c1Nc1ccc(F)c(Cl)c1 [Example 304, 6-{[1-(2-Amino-ethyl)-1H-[1,2,3]triazol-4-ylmethyl]-amino}-8-bromo-4-(3-chloro-4-fluoro-phenylamino)-quinoline-3-carbonitrile]
0.025	CN1CCCC1CCn1cc(CNc2cc(Br)c3ncc(C#N)c(Nc4ccc(F)c(Cl)c4)c3c2)nn1 (stereo not shown) [Example 305, 8-Bromo-4-(3-chloro-4-fluoro-phenylamino)-6-({1-[2-(1-methyl-pyrrolidin-2-yl)-ethyl]-1H-[1,2,3]triazol-4-ylmethyl}-amino)-quinoline-3-carbonitrile]
0.061	N#Cc1cnc2c(Br)cc(NCc3cn(CCN4CCCCCC4)nn3)cc2c1Nc1ccc(F)c(Cl)c1 [Example 307, 6-{[1-(2-Azepan-1-yl-ethyl)-1H-[1,2,3]triazol-4-ylmethyl]-amino}-8-bromo-4-(3-chloro-4-fluoro-phenylamino)-quinoline-3-carbonitrile]
0.028	N#Cc1cnc2c(Br)cc(NCc3cn(CCN4CCCC4)nn3)cc2c1Nc1ccc(F)c(Cl)c1 [Example 308, 8-Bromo-4-(3-chloro-4-fluoro-phenylamino)-6-{[1-(2-pyrrolidin-1-yl-ethyl)-1H-[1,2,3]triazol-4-ylmethyl]-amino}-quinoline-3-carbonitrile]
7.1	N#Cc1cnc2c(CCC(=O)CO)cc(N)cc2c1Nc1ccc(F)c(Cl)c1 [Example 309, 6-amino-4-[(3-chloro-4-fluorophenyl)amino]-8-(4-hydroxy-3-oxobutyl)quinoline-3-carbonitrile]
0.15	N#Cc1cnc2c(CCC(=O)CO)cc(NCc3cnc[nH]3)cc2c1Nc1ccc(F)c(Cl)c1 [Example 310, 4-[(3-chloro-4-fluorophenyl)amino]-8-(4-hydroxy-3-oxybutyl)-6-[(1H-imidazol-5-ylmethyl)amino]quinoline-3-carbonitrile]
0.012	N#Cc1cnc2c(Br)cc(NCc3[nH]nnc3-c3ccccc3)cc2c1Nc1ccc(F)c(Cl)c1 [Example 311, 8-bromo-4-[(3-chloro-4-fluorophenyl)amino]-6-{[(4-phenyl-1H-1,2,3-triazol-5-yl)methyl]amino}quinoline-3-carbonitrile]
9.7	CCOC(=O)/C=C/c1cc(NCc2cnc[nH]2)cc2c(Nc3ccc(F)c(Cl)c3)c(C#N)cnc12 [Example 312, Ethyl(2E)-3-{4-[(3-chloro-4-fluorophenyl)amino]-3-cyano-6-[(1H-imidazol-5-ylmethyl)amino]quinolin-8-yl}acrylate]
0.91	N#Cc1cnc2c(CC(O)CO)cc(NCc3cnc[nH]3)cc2c1Nc1ccc(F)c(Cl)c1 (stereo not shown) [Example 314, 4-[(3-chloro-4-fluorophenyl)amino]-8-(2,3-dihydroxypropyl)-6-[(1H-imidazol-5-ylmethyl)amino]quinoline-3-carbonitrile]
0.01	N#Cc1cnc2c(Br)cc(NCc3cn(C4CCNCC4)nn3)cc2c1Nc1ccc(F)c(Cl)c1 [Example 316, 8-bromo-4-[(3-chloro-4-fluorophenyl)amino]-6-{[(1-piperidin-4-yl-1H-1,2,3-triazol-4-yl)methyl]amino}quinoline-3-carbonitrile]
0.019	CN1CCC(n2cc(CNc3cc(Br)c4ncc(C#N)c(Nc5ccc(F)c(Cl)c5)c4c3)nn2)CC1 [Example 317, 8-bromo-4-[(3-chloro-4-fluorophenyl)amino]-6-({[1-(1-methylpiperidin-4-yl)-1H-1,2,3-triazol-4-yl]methyl}amino)quinoline-3-carbonitrile]
0.0057	CC(O)Cc1nn[nH]c1CNc1cc(Br)c2ncc(C#N)c(Nc3ccc(F)c(Cl)c3)c2c1 (stereo not shown) [Example 318, 8-bromo-4-(3-chloro-4-fluorophenylamino)-6-((5-(2-hydroxypropyl)-3H-1,2,3-triazol-4-yl)methylamino)quinoline-3-carbonitrile]
0.21	N#Cc1cnc2c(Br)cc(NCc3cn(CC(O)CN4CCOCC4)nn3)cc2c1Nc1ccc(F)c(Cl)c1 (stereo not shown) [Example 319, 8-bromo-4-[(3-chloro-4-fluorophenyl)amino]-6-({[1-(2-hydroxy-3-morpholin-4-ylpropyl)-1H-1,2,3-triazol-4-yl]methyl}amino)quinoline-3-carbonitrile]
0.0056	N#Cc1cnc2c(Cl)cc(NCc3cn(CC(=O)NCc4ccccn4)nn3)cc2c1Nc1ccc(F)c(Cl)c1 [Example 320, 2-(4-((8-chloro-4-(3-chloro-4-fluorophenylamino)-3-cyanoquinolin-6-ylamino)methyl)-1H-1,2,3-triazol-1-yl)-N-(pyridin-2-ylmethyl)acetamide]
0.49	CN(Cc1cn(CCC2CCCN2C)nn1)c1cc(Cl)c2ncc(C#N)c(Nc3ccc(F)c(Cl)c3)c2c1 (stereo not shown) [Example 321, 8-chloro-4-(3-chloro-4-fluorophenylamino)-6-(methyl((1-(2-(1-methylpyrrolidin-2-yl)ethyl)-1H-1,2,3-triazol-4-yl)methyl)amino)quinoline-3-carbonitrile]
2.12	CC(C)(C)OC(=O)N1CCC(CNc2cc(Cl)c3ncc(C#N)c(Nc4ccc(F)c(Cl)c4)c3c2)CC1 [Example 322, tert-butyl 4-((8-chloro-4-(3-chloro-4-fluorophenylamino)-3-cyanoquinolin-6-ylamino)methyl)piperidine-1-carboxylate]
1.36	N#Cc1cnc2c(Cl)cc(NCC3CCN(Cc4cccnc4)CC3)cc2c1Nc1ccc(F)c(Cl)c1 [Example 323, 8-chloro-4-(3-chloro-4-fluorophenylamino)-6-((1-(pyridin-3-ylmethyl)piperidin-4-yl)methylamino)quinoline-3-carbonitrile]
0.05	CN1CCC[C@H]1CCn1cc(CNc2cc(Br)c3ncc(C#N)c(Nc4ccc(F)c(Cl)c4)c3c2)nn1 [Example 324, (S)-8-bromo-4-(3-chloro-4-fluorophenylamino)-6-((1-(2-(1-methylpyrrolidin-2-yl)ethyl)-1H-1,2,3-triazol-4-yl)methylamino)quinoline-3-carbonitrile]
